Here are results for one compound from patent US7897364B2, “Method for determining inhibitors of neurotrypsin” (University of Zurich, priority 2005, dated 2011).

For one experiment, the target named is T1, Plasmin (Homo sapiens, UniProt P00747).
T1 construct: Plasmin from human plasma; purchased Sigma Aldrich Chemie GmbH; host or cells: human plasma
Put plainly: Specificity test, photometric pNA peptide substrate assay: plasmin. The settings on record: 100 μM compound; substrate N-Tosyl-GPK-pNA; 25° C. Type of experiment: biochemical. The method, then:
(§1) To check the specificity of a compound found to have an inhibitory effect on human neurotrypsin, standard enzyme kinetic measurements with a set of common serine proteases were performed. A standard photometric assay with commercially available proteases and para-nitroanilide-coupled small peptide substrates was used.
(§2) Kallikrein from porcine pancreas (43 U/mg solid; Sigma Aldrich Chemie GmbH). Plasmin from human plasma (3.2 U/mg solid; Sigma Aldrich Chemie GmbH).
N-Tosyl-GPK-pNA: N-Tosyl-Gly-Pro-Lys-p-nitroanilide, #90178, Fluka Chemie AG.
(§3) The assay was performed in 100 mM Tris-HCl, 150 mM NaCl, 1 mM CaCl2, 5% DMSO, 0.1% PEG 6000, pH 8.0, with the appropriate amount of protease to measure initial velocities and varying amounts of peptide-p-nitroanilide substrates in a range smaller than 0.1 times KM. For inhibition studies 100 μM compound No. 7 were used. Measurements were done at 25° C. in a Cary 50 Spectrophotometer (VARIAN). Initial velocities were determined using various substrate concentrations below 0.1 times KM to be in the range of direct dependency of the initial velocity from the substrate concentration. Initial velocities were plotted against substrate concentrations in the absence or the presence of the candidate inhibitor No. 7. The compound was used in a concentration of 100 μM.

Another experiment has as its target T2, neurotrypsin (Homo sapiens, UniProt P56730).
T2 construct: Human or murine neurotrypsin or catalytically active truncated versions of neurotrypsin are used; made in house; host or cells: mouse myeloma cell line J558L
T2 sequence (P56730 21-875): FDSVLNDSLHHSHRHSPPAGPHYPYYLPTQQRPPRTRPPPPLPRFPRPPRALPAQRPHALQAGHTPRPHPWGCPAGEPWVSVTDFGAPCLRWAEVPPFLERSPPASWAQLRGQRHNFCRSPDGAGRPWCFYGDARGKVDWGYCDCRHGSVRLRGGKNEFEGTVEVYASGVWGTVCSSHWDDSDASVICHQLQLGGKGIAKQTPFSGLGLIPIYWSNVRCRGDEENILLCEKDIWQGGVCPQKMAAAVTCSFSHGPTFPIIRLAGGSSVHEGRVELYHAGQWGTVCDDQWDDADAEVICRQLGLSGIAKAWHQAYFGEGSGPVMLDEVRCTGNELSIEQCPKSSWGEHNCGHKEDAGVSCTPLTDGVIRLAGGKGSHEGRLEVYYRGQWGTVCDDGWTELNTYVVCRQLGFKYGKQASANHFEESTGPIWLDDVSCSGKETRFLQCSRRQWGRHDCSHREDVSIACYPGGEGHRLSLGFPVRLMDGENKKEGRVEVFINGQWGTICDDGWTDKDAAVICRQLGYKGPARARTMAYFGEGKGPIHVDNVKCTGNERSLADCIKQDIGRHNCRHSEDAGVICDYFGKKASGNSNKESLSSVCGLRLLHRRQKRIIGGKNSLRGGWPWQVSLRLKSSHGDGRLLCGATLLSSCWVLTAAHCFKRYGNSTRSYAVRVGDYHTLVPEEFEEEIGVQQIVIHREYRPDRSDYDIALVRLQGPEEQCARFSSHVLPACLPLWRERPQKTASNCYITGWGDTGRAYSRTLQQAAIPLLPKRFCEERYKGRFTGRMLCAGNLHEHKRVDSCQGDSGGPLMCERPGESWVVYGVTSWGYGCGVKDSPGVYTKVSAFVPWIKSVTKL
Put plainly: Western blot-based screening assay for neurotrypsin inhibitors (agrin-EGFP cleavage). It is filed as biochemical. The settings on record: inhibitor 25 or 150 μM; agrin-EGFP substrate; 3 h at 37° C.; intensity of 150-kDa fragment on Western blot. The method, then:
Negative control (−): only agrin-EGFP without neurotrypsin. Positive control (+): agrin-EGFP with addition of neurotrypsin.
Compounds were dissolved in DMSO to a final concentration of 10 mM. For the assay the solution in DMSO was diluted with 10 mM MOPS, pH 7.5, to a concentration of 500 μM and 5% DMSO (1:20 dilution). Insoluble and precipitated material was removed by centrifugation (15 min, 16 krcf, RT). The cleared supernatant was used for the inhibition assay, as described in Example 27.
(§4) The inhibitory activity of small-molecule compounds on the catalytic activity of neurotrypsin is measured in 150 mM NaCl, 5 mM CaCl2, 5% DMSO, 0.1% PEG 6000, and 20 mM MOPS, pH 7.5 in 0.5 ml low protein-binding Eppendorf tubes in a total volume of 15 μl. Human or murine neurotrypsin or catalytically active truncated versions of neurotrypsin are used at a concentration that results in cleavage of 80% of the substrate within 3 hours. As substrate, engineered soluble agrin, for example 0.1-1 μM agrin-EGFP (Example 20) or 0.1-3 μM engineered agrin-C45 (Example 21), is used. […]
One way of substrate visualization is Western blotting. […] The intensity of the 150-kDa fragments of agrin-EGFP generated by neurotrypsin-mediated cleavage in the presence of the putative inhibitory compounds (FIG. 16 A) are measured and the relative intensities are plotted (FIG. 16 B).
In general terms: A western blot detects proteins with antibodies after separation by electrophoresis.

Another experiment deals with T3, Thrombin (Bos taurus, UniProt P00735).
T3 construct: Thrombin from bovine plasma; purchased Merck; host or cells: bovine plasma
Put plainly: Specificity test, photometric pNA peptide substrate assay: thrombin. It is filed as biochemical, bovine. The settings on record: 100 μM compound; substrate Bz-FVR-pNA; 25° C. The method, then: as §1
(§5) Thrombin from bovine plasma (50 NIH/mg, Merck, D-64271 Darmstadt, Germany). Urokinase HS medac (100000 I.E.; medac Gesellschaft für klinische Spezialpräparate mbH, D-22880 Wedel, Germany).
(§6) Bz-FVR-pNA: N-Benzoyl-Phe-Val-Arg-p-nitroanilide HCl, Bachem AG, CH-4416 Bubendorf, Switzerland.
as §3

The next experiment concerns the target T4, Factor Xa (Bos taurus, UniProt P00743).
T4 construct: purchased Sigma Aldrich Chemie GmbH; host or cells: bovine plasma
Put plainly: Specificity test, photometric pNA peptide substrate assay: factor Xa. The settings on record: 100 μM compound; substrate Bz-IEGR-pNA; 25° C. It is filed as biochemical, bovine. The method, then:
as §1
Factor Xa activated from bovine plasma (6.1 mg protein/ml; Sigma Aldrich Chemie GmbH, D-89552 Steinheim, Germany).
Bz-IEGR-pNA: S-2222, Chromogenix-Instrumentation Laboratory SpA, 1-20128 Milano, Italy.
as §3

Another experiment addresses T5, Kallikrein (Sus scrofa, UniProt P00752).
T5 construct: Kallikrein from porcine pancreas; purchased Sigma Aldrich Chemie GmbH; host or cells: porcine pancreas
In words: Specificity test, photometric pNA peptide substrate assay: kallikrein. It is filed as biochemical, porcine. The settings on record: 100 μM compound; substrate Bz-FVR-pNA; 25° C. The procedure:
as §1, §2, §6, §3

The target of the next experiment is T6, Urokinase (Homo sapiens, UniProt P00749).
T6 construct: purchased medac Gesellschaft für klinische Spezialpräparate mbH Urokinase HS medac (100000 I.E.)
In words: Specificity test, photometric pNA peptide substrate assay: urokinase. Type of experiment: biochemical. Particulars: 100 μM compound; substrate Bz-VGR-pNA; 25° C. The method, then:
as §1, §5
Bz-VGR-pNA: N-Benzoyl-Val-Gly-Arg-p-nitroanilide, Sigma Aldrich Chemie GmbH.
as §3

The target in the next experiment is T7, tPA (Homo sapiens, UniProt P00750).
T7 construct: purchased Dr. Karl Thomae GmbH Actilyse (10 mg)
In words: Specificity test, photometric pNA peptide substrate assay: tPA. The settings on record: 100 μM compound; substrate IPR-pNA; 25° C. It is filed as biochemical. The method, then:
as §1
tPA: Actilyse (10 mg; Dr. Karl Thomae GmbH, Birkendorfer Straβe 65, D-88397 Biberach, Germany).
IPR-pNA: S-2288, Chromogenix-Instrumentation Laboratory SpA.
as §3

For the next experiment, the target named is T8, mouse neurotrypsin (Mus musculus, UniProt O08762).
T8 construct: made in house; host or cells: mouse myeloma cell line J558L
T8 sequence (O08762 22-761): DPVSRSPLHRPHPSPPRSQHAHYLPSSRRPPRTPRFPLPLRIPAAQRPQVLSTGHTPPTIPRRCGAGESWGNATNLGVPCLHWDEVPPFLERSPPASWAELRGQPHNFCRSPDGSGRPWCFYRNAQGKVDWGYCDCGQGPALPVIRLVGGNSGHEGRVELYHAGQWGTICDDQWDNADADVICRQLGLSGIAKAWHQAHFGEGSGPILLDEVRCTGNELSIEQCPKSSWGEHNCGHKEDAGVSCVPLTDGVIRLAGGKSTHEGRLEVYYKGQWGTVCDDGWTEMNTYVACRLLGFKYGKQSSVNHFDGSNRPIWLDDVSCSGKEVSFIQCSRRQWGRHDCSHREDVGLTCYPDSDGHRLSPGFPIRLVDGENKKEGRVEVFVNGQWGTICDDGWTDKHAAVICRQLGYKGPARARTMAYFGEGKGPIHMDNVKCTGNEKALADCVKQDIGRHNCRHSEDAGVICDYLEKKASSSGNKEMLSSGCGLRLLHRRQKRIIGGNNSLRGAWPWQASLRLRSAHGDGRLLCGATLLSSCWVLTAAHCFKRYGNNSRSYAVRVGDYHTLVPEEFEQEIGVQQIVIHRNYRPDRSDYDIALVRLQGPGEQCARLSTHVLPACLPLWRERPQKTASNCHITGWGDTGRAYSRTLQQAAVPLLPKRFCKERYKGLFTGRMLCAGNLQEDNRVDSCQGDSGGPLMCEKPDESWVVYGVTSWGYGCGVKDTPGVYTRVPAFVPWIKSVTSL
Put plainly: Dose dependence of neurotrypsin inhibition (agrin-EGFP cleavage, Western blot). The settings on record: 0 to 200 μM compound; agrin-EGFP substrate; Western blot quantification; read-out: IC50 value (half-maximum amount of product). Type of experiment: biochemical.
From the text: (A) Western blot detection of the 150 kDa C-terminal fragment of agrin (Ag-CF) generated by neurotrypsin-mediated cleavage of agrin-EGFP in dependence of the concentration of compound No. 7, N^1-amidino-N^4-(3,5-dibromosalicylidene)-sulfanilamide.
(B) Graphic plot of the intensity data from (A) against the inhibitor concentration with I=100% intensity for agrin+mouse neurotrypsin without addition of inhibitor compound No. 7.
as §4, with “used. Inhibitor solution in 10 mM MOPS, pH 7.5, containing 5% DMSO is added to a final concentration of either 25 or 150 μM.” for “used.”
Different concentrations of compound No. 7 from 0 to 200 μM were tested with the assay described in Example 27 with engineered agrin-EGFP as substrate. The generated product was detected by Western blot (FIG. 17 A) and quantified (FIG. 17 B).

The next experiment addresses T9, Trypsin (Sus scrofa, UniProt P00761).
T9 construct: Trypsin from hog pancreas; purchased Fluka Chemie AG; host or cells: hog pancreas
In words: Specificity test, photometric pNA peptide substrate assay: trypsin. Type of experiment: biochemical, hog. The settings on record: 100 μM compound; substrate Bz-FVR-pNA; 25° C. The method, then: as §1
Trypsin from hog pancreas (16099 U/mg; Fluka Chemie AG, CH-9471 Buchs, Switzerland).
as §6, §3

SMILES strings stand for the structures. Entries after “also recorded” stand apart in the source; their conditions may differ.

T9 sequence (P00761 9-231): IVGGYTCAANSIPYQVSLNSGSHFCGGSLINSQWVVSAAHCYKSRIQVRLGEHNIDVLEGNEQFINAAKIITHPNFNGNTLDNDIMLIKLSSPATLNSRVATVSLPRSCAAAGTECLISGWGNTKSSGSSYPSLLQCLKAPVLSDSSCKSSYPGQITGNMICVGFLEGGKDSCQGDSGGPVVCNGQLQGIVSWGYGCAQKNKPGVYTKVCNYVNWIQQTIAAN
T1 sequence (P00747 581-810 limits assumed): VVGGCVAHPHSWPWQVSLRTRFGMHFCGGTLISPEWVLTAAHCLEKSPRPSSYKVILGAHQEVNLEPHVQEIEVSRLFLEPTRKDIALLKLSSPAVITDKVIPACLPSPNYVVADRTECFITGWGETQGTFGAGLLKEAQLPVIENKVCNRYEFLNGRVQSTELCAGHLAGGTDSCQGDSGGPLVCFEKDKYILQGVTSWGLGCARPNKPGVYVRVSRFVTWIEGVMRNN
T1 sequence (P00747 97-580 limits assumed): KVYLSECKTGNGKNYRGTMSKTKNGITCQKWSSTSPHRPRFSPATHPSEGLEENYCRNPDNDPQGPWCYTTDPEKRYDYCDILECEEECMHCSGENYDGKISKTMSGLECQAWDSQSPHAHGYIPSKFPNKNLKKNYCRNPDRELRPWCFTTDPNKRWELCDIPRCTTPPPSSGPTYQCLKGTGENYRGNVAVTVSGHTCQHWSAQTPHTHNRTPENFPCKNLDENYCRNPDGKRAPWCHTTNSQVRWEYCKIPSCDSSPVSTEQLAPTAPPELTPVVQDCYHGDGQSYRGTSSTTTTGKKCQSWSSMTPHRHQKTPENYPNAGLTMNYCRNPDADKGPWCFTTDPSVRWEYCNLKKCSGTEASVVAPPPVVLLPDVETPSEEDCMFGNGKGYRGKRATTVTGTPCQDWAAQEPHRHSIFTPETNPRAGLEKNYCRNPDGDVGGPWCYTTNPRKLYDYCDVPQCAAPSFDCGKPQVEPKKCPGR
T5 sequence (P00752 8-246): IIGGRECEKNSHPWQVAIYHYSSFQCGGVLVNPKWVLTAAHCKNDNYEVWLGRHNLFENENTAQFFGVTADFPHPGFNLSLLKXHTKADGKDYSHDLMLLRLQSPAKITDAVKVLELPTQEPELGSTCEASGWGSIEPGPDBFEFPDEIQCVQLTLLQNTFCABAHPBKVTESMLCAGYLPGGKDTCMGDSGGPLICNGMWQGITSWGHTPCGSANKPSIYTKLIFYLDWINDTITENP
T4 sequence (P00743 234-492 limits assumed): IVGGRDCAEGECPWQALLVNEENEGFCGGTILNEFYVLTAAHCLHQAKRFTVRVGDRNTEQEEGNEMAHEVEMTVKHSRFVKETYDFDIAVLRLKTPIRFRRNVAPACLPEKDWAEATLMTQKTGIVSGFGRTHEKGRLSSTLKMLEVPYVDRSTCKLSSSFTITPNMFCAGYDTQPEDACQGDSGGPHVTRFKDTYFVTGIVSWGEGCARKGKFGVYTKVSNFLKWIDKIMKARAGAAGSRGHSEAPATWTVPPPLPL
T4 sequence (P00743 41-180 limits assumed): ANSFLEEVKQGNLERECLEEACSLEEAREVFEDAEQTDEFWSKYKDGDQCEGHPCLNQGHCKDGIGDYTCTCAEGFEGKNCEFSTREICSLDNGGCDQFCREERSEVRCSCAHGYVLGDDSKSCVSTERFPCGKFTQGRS
T7 sequence (P00750 36-562): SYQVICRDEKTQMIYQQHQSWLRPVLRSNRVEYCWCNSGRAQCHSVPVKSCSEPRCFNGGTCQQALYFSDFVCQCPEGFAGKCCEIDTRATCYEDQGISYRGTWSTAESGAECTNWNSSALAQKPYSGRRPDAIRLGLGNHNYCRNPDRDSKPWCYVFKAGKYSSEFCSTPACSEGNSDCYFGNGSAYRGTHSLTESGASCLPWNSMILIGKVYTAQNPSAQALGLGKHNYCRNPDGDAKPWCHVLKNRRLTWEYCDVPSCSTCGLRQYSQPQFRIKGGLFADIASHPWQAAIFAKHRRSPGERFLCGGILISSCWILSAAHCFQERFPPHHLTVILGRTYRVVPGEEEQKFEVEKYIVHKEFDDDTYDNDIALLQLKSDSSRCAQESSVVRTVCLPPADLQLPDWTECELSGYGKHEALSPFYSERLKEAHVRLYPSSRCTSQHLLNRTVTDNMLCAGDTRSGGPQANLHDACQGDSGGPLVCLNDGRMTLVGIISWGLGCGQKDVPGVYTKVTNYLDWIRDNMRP

A word on the IC50: it is the point on the concentration scale where inhibition reaches its midpoint. In the case of `N=C(N)NS(=O)(=O)c1ccc(N=Cc2cc(Br)cc(Br)c2O)cc1` [Compound No. 7, N^1-amidino-N^4-(3,5-dibromosalicylidene)-sulfanilamide], at Plasmin, the “inhibition of plasmin (initial velocities)” value is “None of the investigated enzymes showed a significant inhibition; also recorded: No inhibition”. In addition, at neurotrypsin, the “inhibitory activity on neurotrypsin” value was “significant inhibitory activity”. The “inhibition of thrombin (initial velocities)” value against Thrombin is “None of the investigated enzymes showed a significant inhibition; also recorded: No inhibition”. Also, the “inhibition of factor Xa (initial velocities)” value against Factor Xa is given as “None of the investigated enzymes showed a significant inhibition; also recorded: No inhibition”. For the same compound, the “inhibition of kallikrein (initial velocities)” value against Kallikrein is “None of the investigated enzymes showed a significant inhibition; also recorded: No inhibition”. Moreover, the “inhibition of urokinase (initial velocities)” value against Urokinase is recorded as “None of the investigated enzymes showed a significant inhibition; also recorded: No inhibition”. Besides, the “inhibition of tPA (initial velocities)” value against tPA is “None of the investigated enzymes showed a significant inhibition; also recorded: No inhibition”. The 50% inhibitory concentration (IC50) at mouse neurotrypsin was approximately 60 µM. Besides, the “inhibition of trypsin (initial velocities)” value against Trypsin is given as “None of the investigated enzymes showed a significant inhibition; also recorded: No inhibition”.
